# Like-named read-outs stand apart in the source and are kept apart here.
# What was measured:
# [1] = tested on: other mGluR subtypes (mGluR1, mGluR3, mGluR4, mGluR5, mGluR6, mGluR8); experiment: Selectivity among mGluR subtypes; details: versus mGluR2
# [2] = Rat liver microsomal stability; type: in vitro ADME; details: Sprague-Dawley, liver microsomes, pH 7.4
# [3] = Solution stability in aqueous buffers; type: physicochemical
# mGluR2 [4] = target: mGluR2 (Rattus norvegicus, UniProt P31421); experiment: PET imaging and blocking studies in rat brain; type: in vivo, Sprague-Dawley rats; details: pretreatment 4 mg/kg i.v. 10 min before [11C]13, 10–30 min time window
# Chain of mGluR2 (Rattus norvegicus, UniProt P31421) (P31421 19-872): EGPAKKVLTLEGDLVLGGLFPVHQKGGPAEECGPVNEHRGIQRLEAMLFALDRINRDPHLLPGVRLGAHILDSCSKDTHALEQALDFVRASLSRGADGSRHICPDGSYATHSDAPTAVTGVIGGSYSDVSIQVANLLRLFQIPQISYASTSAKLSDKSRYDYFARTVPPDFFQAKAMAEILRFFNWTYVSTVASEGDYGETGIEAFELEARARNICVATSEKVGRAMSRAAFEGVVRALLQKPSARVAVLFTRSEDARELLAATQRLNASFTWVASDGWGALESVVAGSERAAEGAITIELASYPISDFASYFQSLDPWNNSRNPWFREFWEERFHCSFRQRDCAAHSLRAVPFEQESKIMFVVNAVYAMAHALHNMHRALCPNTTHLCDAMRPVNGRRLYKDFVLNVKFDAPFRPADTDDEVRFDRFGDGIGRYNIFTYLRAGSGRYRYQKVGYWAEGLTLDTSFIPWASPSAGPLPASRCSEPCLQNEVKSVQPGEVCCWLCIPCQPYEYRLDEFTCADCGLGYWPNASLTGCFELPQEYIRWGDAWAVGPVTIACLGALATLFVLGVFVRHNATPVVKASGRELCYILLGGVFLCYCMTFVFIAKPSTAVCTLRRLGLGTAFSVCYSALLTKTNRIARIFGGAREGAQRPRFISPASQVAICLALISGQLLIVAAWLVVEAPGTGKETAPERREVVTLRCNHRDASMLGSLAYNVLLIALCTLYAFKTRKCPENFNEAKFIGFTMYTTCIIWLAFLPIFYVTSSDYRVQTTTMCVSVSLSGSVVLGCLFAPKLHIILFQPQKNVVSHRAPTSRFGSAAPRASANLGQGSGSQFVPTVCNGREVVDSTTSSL
# [5] = Plasma stability in rat serum; type: in vitro ADME; details: 37 °C
# recombinant human P-gp = recombinant human P-gp (Homo sapiens, UniProt P08183); experiment: Pgp-Glo assay, P-gp ATPase activity; details: compared with basal and verapamil activities; test compound 200 μM
# Chain of recombinant human P-gp (P08183 whole entry): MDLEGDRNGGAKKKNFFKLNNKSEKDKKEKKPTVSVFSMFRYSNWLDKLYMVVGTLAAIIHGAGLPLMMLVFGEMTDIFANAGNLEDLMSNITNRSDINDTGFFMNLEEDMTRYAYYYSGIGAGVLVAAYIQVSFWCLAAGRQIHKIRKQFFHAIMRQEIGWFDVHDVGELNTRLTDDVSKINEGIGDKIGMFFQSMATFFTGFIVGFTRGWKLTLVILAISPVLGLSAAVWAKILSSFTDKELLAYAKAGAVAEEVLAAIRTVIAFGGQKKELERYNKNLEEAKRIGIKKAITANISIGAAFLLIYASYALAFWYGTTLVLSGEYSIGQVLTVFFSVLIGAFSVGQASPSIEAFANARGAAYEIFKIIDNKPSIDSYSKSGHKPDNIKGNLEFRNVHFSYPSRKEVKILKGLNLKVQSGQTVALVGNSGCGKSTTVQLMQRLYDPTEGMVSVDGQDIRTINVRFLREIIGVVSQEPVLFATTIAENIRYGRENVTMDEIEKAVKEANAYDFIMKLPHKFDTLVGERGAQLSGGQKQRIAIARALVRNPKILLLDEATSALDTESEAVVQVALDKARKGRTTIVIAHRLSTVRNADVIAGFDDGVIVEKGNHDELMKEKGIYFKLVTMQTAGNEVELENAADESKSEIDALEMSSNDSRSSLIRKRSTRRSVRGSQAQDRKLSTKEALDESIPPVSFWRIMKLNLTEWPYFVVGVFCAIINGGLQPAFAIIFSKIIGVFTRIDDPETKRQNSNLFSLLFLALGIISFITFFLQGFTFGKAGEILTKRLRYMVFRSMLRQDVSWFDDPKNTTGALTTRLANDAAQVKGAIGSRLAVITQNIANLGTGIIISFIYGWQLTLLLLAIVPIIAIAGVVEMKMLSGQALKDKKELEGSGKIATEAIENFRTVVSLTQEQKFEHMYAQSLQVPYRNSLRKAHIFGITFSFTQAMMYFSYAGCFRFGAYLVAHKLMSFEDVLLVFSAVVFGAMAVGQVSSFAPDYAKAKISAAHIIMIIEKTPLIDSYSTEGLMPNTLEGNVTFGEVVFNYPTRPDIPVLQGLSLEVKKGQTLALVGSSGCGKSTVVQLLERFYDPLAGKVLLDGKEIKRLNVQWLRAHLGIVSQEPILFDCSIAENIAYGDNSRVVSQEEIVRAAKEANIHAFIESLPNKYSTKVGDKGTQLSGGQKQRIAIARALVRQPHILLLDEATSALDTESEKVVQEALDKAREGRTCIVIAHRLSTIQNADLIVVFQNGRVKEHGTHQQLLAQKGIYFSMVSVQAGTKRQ
# mGluR2 [6] = target: T1, mGluR2 (Homo sapiens, UniProt Q14416); experiment: Competitive binding assay with [3H]JNJ-46281222 in mGluR2 transfected CHO cells
# T1 sequence (Q14416 19-872): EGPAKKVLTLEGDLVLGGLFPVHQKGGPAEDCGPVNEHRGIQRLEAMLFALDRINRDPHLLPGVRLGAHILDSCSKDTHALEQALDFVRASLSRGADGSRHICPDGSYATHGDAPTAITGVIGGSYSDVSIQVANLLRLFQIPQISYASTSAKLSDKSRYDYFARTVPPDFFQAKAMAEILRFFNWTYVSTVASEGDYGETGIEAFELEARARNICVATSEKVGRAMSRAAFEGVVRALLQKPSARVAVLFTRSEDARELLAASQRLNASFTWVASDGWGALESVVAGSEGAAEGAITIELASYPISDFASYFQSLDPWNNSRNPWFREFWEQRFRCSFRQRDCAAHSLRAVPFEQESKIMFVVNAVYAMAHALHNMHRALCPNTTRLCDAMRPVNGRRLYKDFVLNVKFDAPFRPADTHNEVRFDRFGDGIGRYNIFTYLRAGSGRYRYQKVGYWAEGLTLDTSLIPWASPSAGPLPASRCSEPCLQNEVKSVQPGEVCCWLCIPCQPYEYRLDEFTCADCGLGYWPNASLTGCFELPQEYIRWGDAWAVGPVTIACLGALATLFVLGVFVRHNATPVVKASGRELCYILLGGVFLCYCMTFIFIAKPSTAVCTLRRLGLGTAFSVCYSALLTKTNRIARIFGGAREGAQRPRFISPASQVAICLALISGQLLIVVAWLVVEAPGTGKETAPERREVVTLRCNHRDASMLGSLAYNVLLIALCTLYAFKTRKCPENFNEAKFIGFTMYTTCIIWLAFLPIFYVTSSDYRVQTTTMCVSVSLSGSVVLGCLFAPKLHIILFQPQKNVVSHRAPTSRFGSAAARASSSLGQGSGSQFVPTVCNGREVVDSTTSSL
# mGluR2 [7] = target: T1, mGluR2; experiment: GloSensor cAMP biosensor assay, mGluR2 PAM activity; details: read-out: EC50, mGluR2 PAM activity; in the presence of EC20 amount of L-glutamate; intracellular cAMP
# [8] = PAMPA high / low permeability standard, value as stated, ref not given; cited from earlier work
compound,measurement,setting,value
"COc1cc(C(F)(F)F)ccc1C1CCN(Cc2nc3ncccc3n2C)CC1 [Compound 13, 2-((4-(2-Methoxy-4-(trifluoromethyl)phenyl)piperidin-1-yl)methyl)-1-methyl-1H-imidazo[4,5-b]pyridine]",selectivity against other mGluR subtypes,[1],> 100 fold
same,half-life at 3 μM,[2],1.24 h
same,The solution stability: the intact ± SEM at 120 min,"[3]; pH = 5.0, 37 °C",95.3 ± 0.3%
same,The solution stability: the intact ± SEM at 120 min,"[3]; pH = 7.4, 37 °C",94.5 ± 0.4%
same,The solution stability: the intact ± SEM at 120 min,"[3]; pH = 9.4, 37 °C",96.1 ± 0.7%
same,enhancement of radioactivity uptake in the different brain areas,mGluR2 [4],33–49%
same,The plasma stability: the intact ± SEM at 120 min,[5],96.6 ± 2.1%
same,P-gp ATPase activity,recombinant human P-gp,moderate
same,P-gp substrate assessment,recombinant human P-gp,not a P-gp substrate
same,IC50,mGluR2 [6],7.6 ± 0.9 nM
"COc1cc(NC(=O)c2ccccn2)ccc1Cl [ML128, reference compound]",half-life at 3 μM,[2],0.07 h
same,microsomal CLint at 3 μM,[2],317 µL/min/mg
"COc1ccc([C@@H]2Sc3ccccc3N(CCN(C)C)C(=O)[C@@H]2OC(C)=O)cc1 [Diltiazem, reference compound]",The plasma stability: the intact ± SEM at 120 min,[5],43.2 ± 0.8%
"Fc1ccc(N2CCN(Cc3ccn4c(CC5CC5)nnc4c3C(F)(F)F)CC2)c(F)c1 [Compound 17, 3-(Cyclopropylmethyl)-7-((4-(2,4-difluorophenyl)piperazin-1-yl)methyl)-8-(trifluoromethyl)[1,2,4]triazolo[4,3-a]pyridine, reference compound]",decrease of [11C]13 uptake in different brain areas,mGluR2 [4],28–37%
"COc1cc(C(F)(F)F)ccc1OC[C@@H]1[C@H]2CN(Cc3nc4ncccc4n3C)C[C@@H]12 [Compound 15, 2-(((1R,5S,6R)-6-((2-methoxy-4-(trifluoromethyl)phenoxy)methyl)-3-azabicyclo[3.1.0]hexan-3-yl)methyl)-1-methyl-1H-imidazo[4,5-b]pyridine]",EC50,mGluR2 [7],7800 nM
same,IC50,"mGluR2 [6]; read-out: IC50 ± SEM, mGluR2 transfected CHO cells, 10 nM [3H]JNJ-46281222",10.5 ± 7.9 nM
Cn1c(=O)c2[nH]cnc2n(C)c1=O [theophylline],Pe of quality control standard,[8],0.12 ×10⁻⁶ cm/s
"COc1cc(C(F)(F)F)ccc1C1CCN(Cc2nc3nccc4c3n2CCC4)CC1 [Compound 14, 2-((4-(2-Methoxy-4-(trifluoromethyl)phenyl)piperidin-1-yl)methyl)-5,6-dihydro-4H-imidazo [4,5,1-ij][1,7]naphthyridine]",half-life at 3 μM,[2],1.23 h
same,microsomal CLint at 3 μM,[2],18.1 µL/min/mg
same,The plasma stability: the intact ± SEM at 120 min,[5],89.2 ± 0.6%
same,IC50,mGluR2 [6],10.5 ± 0.5 nM
